Target: T1, ODC (Homo sapiens, UniProt P11926)
T1 sequence (P11926 1-461): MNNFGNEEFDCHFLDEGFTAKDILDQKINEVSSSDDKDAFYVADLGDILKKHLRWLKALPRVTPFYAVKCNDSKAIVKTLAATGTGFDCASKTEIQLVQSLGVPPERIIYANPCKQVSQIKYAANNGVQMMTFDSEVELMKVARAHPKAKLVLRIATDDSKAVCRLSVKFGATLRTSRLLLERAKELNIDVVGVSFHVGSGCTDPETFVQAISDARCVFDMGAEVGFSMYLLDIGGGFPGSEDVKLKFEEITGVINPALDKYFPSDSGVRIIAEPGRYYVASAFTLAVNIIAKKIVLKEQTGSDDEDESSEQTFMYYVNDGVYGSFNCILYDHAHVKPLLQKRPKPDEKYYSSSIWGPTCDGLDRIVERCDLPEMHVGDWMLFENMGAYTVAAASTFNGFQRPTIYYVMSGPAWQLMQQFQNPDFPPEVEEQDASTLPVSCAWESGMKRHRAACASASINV
Test: ODC enzyme assay with recombinant ODC protein
Format: biochemical
Conditions: in vitro
Experimental: FIGS. 5A-5E. The effect of herbacetin on ODC activity was assessed in (a) DLD-1 and (b) HCT116 colon cancer cells. Cell lysates were incubated for 15 min with reaction buffer and different doses of herbacetin or DFMO and then incubated at 37° C. for 1 h. Herbacetin (c) and kaempferol (d) were modeled as allosteric inhibitors with the ODC crystal structure. (e) The effect of herbacetin or kaempferol on ODC activity was assessed using a human ODC recombinant protein. Each reaction was incubated at 37° C. for 1 h and ODC activity was measured as the release of CO2 from L-[1-C^14] ornithine. Data are represented as means±S.D. of triplicate values. The asterisk (*) indicates a significant difference (p<0.05) between herbacetin-treated samples compared to untreated or kaempferol-treated samples.
ODC activity was measured as the release of CO2 from L-[1-C^14] ornithine as previously described ([…]).

For O=c1c(O)c(-c2ccc(O)cc2)oc2cc(O)cc(O)c12 [kaempferol, reference compound], which “ODC activity (release of CO2 from L-[1-C^14] ornithine)” value is on record?
The value was “little effect”.

— US10532040B2, “Methods of treating cancer with herbacetin” (REGENTS OF THE UNIVERSITY OF MINNESOTA, priority 2011, dated 2020)
